Source: the supplement of paper PMC10307832

What was measured:
Assay in all cases: relative viability (nuclei count vs DMSO), 5 days (fraction); higher = more cells survive
Alisertib + Palbociclib = compound: COc1cc(Nc2ncc3c(n2)-c2ccc(Cl)cc2C(c2c(F)cccc2OC)=NC3)ccc1C(=O)O [Alisertib] + CC(=O)c1c(C)c2cnc(Nc3ccc(N4CCNCC4)cn3)nc2n(C2CCCC2)c1=O [Palbociclib] (partner 0.5 µM)
Method in brief: (§1)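 Relative viability was taken as the ratio of nuclei in treated wells to nuclei in vehicle wells. Lung cancer cell lines in 1536-well plates received compounds by pin tool one day after seeding, either one drug alone or a fixed anchor-drug dose plus five library-drug doses (not always all listed) in √10 steps. Nuclei were counted on 4× images after 5 days of treatment, and values are medians of duplicate plates.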

Alisertib + OSI-027 = compound: COc1cc(Nc2ncc3c(n2)-c2ccc(Cl)cc2C(c2c(F)cccc2OC)=NC3)ccc1C(=O)O [Alisertib] + COc1cccc2cc(-c3nc([C@H]4CC[C@H](C(=O)O)CC4)n4ncnc(N)c34)[nH]c12 [OSI-027] (partner 0.5 µM)
Method in brief: as §1

Alisertib + Foretinib = compound: COc1cc(Nc2ncc3c(n2)-c2ccc(Cl)cc2C(c2c(F)cccc2OC)=NC3)ccc1C(=O)O [Alisertib] + COc1cc2c(Oc3ccc(NC(=O)C4(C(=O)Nc5ccc(F)cc5)CC4)cc3F)ccnc2cc1OCCCN1CCOCC1 [Foretinib] (partner 0.25 µM)
Method in brief: as §1

Alisertib = compound: COc1cc(Nc2ncc3c(n2)-c2ccc(Cl)cc2C(c2c(F)cccc2OC)=NC3)ccc1C(=O)O [Alisertib]
Method in brief: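 Five library-drug doses, separated by factors of √10, were pinned into 1536-well plates holding lung cancer cell lines after an overnight stay at 37 °C. Cells were fixed, permeabilised and Hoechst-stained in one step after 5 days without medium change, then imaged at 4×. Viability compares treated-well with vehicle-well nuclei, counted in MetaXpress, as a median across plates. Passing plates had control CV below 25% and at least one doubling.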

Row | Cell Line | relative viability (Alisertib + Palbociclib; first compound 0.005 µM) | relative viability (Alisertib + Palbociclib; first compound 0.01581 µM) | relative viability (Alisertib + Palbociclib; first compound 0.05 µM) | relative viability (Alisertib + Palbociclib; first compound 0.1581 µM) | relative viability (Alisertib + Palbociclib; first compound 0.5 µM) | relative viability (Alisertib + OSI-027; first compound 0.005 µM) | relative viability (Alisertib + OSI-027; first compound 0.01581 µM) | relative viability (Alisertib + OSI-027; first compound 0.05 µM) | relative viability (Alisertib + OSI-027; first compound 0.1581 µM) | relative viability (Alisertib + OSI-027; first compound 0.5 µM) | relative viability (Alisertib + Foretinib; first compound 0.005 µM) | relative viability (Alisertib + Foretinib; first compound 0.01581 µM) | relative viability (Alisertib + Foretinib; first compound 0.05 µM) | relative viability (Alisertib + Foretinib; first compound 0.1581 µM) | relative viability (Alisertib + Foretinib; first compound 0.5 µM) | relative viability (Alisertib; 0.005 µM) | relative viability (Alisertib; 0.01581 µM) | relative viability (Alisertib; 0.05 µM) | relative viability (Alisertib; 0.1581 µM) | relative viability (Alisertib; 0.5 µM)
1 | HCC-78 | 0.5 | 0.458 | 0.357 | 0.407 | 0.307 | 0.536 | 0.354 | 0.244 | 0.244 | 0.241 | 0.548 | 0.438 | 0.329 | 0.238 | 0.275 | 0.858 | 0.642 | 0.303 | 0.284 | 0.328
2 | HCC-366 | 0.361 | 0.322 | 0.0243 | 0.0284 | 0.039 | 0.973 | 0.696 | 0.0686 | 0.04 | 0.0334 | 0.975 | 0.156 | 0.035 | 0.054 | 0.055 | 1 | 0.813 | 0.0889 | 0.0461 | 0.054
3 | HCC-827 | 0.459 | 0.537 | 0.379 | 0.27 | 0.207 | 0.722 | 0.755 | 0.685 | 0.257 | 0.18 | 1.05 | 0.726 | 0.333 | 0.276 | 0.237 | 0.947 | 1.01 | 0.812 | 0.363 | 0.324
4 | HOP-62 | 0.431 | 0.489 | 0.233 | 0.188 | 0.14 | 0.683 | 0.727 | 0.537 | 0.243 | 0.176 | 1.08 | 0.876 | 0.285 | 0.256 | 0.205 | 0.918 | 0.867 | 0.505 | 0.237 | 0.17
5 | IA-LM | – | – | – | – | – | – | – | – | – | – | 1.11 | 1.09 | 0.737 | 0.214 | 0.0846 | 0.795 | 0.823 | 0.569 | 0.357 | 0.0972
6 | LC-2-ad | 0.413 | 0.459 | 0.282 | 0.276 | 0.21 | 0.587 | 0.368 | 0.441 | 0.307 | 0.268 | 0.803 | 0.597 | 0.503 | 0.351 | 0.285 | 0.736 | 0.594 | 0.347 | 0.245 | 0.225
7 | LCLC-97TM1 | 0.222 | 0.215 | 0.127 | 0.0905 | 0.0969 | 0.424 | 0.349 | 0.264 | 0.129 | 0.0853 | 0.91 | 0.707 | 0.379 | 0.253 | 0.182 | 0.931 | 0.791 | 0.496 | 0.137 | 0.121
8 | LCLC-103H | 0.44 | 0.485 | 0.385 | 0.335 | 0.4 | 0.427 | 0.438 | 0.473 | 0.201 | 0.204 | 0.759 | 0.544 | 0.283 | 0.272 | 0.236 | 0.903 | 1.04 | 0.875 | 0.392 | 0.293
9 | LK-2 | 0.684 | 0.67 | 0.403 | 0.178 | 0.148 | 0.224 | 0.232 | 0.185 | 0.166 | 0.17 | 0.955 | 0.979 | 0.601 | 0.245 | 0.189 | 0.962 | 0.853 | 0.497 | 0.297 | 0.202
10 | LOU-NH91 | 0.505 | 0.529 | 0.511 | 0.501 | 0.397 | 0.682 | 0.719 | 0.674 | 0.389 | 0.324 | 0.921 | 0.922 | 0.655 | 0.444 | 0.366 | 0.938 | 0.958 | 0.734 | 0.478 | 0.398
11 | LU99A | 0.386 | 0.418 | 0.189 | 0.185 | 0.174 | 0.301 | 0.324 | 0.259 | 0.204 | 0.164 | 0.741 | 0.762 | 0.361 | 0.27 | 0.205 | 0.961 | 0.853 | 0.579 | 0.288 | 0.193
12 | LXF-289 | 0.571 | 0.527 | 0.267 | 0.204 | 0.181 | 0.637 | 0.656 | 0.461 | 0.123 | 0.0861 | 0.858 | 0.675 | 0.218 | 0.187 | 0.157 | 0.844 | 0.672 | 0.46 | 0.183 | 0.195
13 | NCI-H596 | – | – | – | – | – | 0.606 | 0.665 | 0.788 | 0.727 | 0.26 | 0.87 | 0.804 | 0.762 | 0.175 | 0.395 | 0.882 | 1 | 1.07 | 0.816 | 0.4
14 | NCI-H1299 | – | – | – | – | – | – | – | – | – | – | 1.05 | 1.05 | 0.665 | 0.333 | 0.192 | 0.992 | 0.963 | 0.585 | 0.415 | 0.233
15 | NCI-H1563 | – | – | – | – | – | 0.742 | 0.768 | 0.684 | 0.695 | 0.54 | 0.908 | 0.833 | 0.846 | 0.818 | 0.607 | 0.999 | 0.943 | 0.871 | 0.903 | 0.647
16 | NCI-H1648 | – | 0.265 | 0.22 | 0.258 | 0.239 | 0.258 | 0.242 | 0.23 | 0.252 | 0.239 | – | – | – | – | – | 0.833 | 0.755 | 0.606 | 0.255 | 0.242
17 | NCI-H1703 | – | – | – | – | – | – | – | – | – | – | 0.313 | 0.379 | 0.29 | 0.248 | 0.201 | 0.871 | 0.721 | 0.57 | 0.241 | 0.143
18 | NCI-H1792 | 0.697 | 0.522 | 0.423 | 0.343 | 0.169 | 0.665 | 0.622 | 0.399 | 0.257 | 0.178 | – | – | – | – | – | 0.81 | 0.68 | 0.538 | 0.232 | 0.109
